From patent publication US12612410B2 (CHILDREN'S HOSPITAL MEDICAL CENTER, priority 2020, dated 2026)

Target: T1, FLT3 ITD (Homo sapiens, UniProt P36888)
T1 construct: fused on or other part: DNA tag for qPCR detection (T7 phage fusion or DNA-tagged protein from HEK-293 cells)
T1 sequence (P36888 1-993): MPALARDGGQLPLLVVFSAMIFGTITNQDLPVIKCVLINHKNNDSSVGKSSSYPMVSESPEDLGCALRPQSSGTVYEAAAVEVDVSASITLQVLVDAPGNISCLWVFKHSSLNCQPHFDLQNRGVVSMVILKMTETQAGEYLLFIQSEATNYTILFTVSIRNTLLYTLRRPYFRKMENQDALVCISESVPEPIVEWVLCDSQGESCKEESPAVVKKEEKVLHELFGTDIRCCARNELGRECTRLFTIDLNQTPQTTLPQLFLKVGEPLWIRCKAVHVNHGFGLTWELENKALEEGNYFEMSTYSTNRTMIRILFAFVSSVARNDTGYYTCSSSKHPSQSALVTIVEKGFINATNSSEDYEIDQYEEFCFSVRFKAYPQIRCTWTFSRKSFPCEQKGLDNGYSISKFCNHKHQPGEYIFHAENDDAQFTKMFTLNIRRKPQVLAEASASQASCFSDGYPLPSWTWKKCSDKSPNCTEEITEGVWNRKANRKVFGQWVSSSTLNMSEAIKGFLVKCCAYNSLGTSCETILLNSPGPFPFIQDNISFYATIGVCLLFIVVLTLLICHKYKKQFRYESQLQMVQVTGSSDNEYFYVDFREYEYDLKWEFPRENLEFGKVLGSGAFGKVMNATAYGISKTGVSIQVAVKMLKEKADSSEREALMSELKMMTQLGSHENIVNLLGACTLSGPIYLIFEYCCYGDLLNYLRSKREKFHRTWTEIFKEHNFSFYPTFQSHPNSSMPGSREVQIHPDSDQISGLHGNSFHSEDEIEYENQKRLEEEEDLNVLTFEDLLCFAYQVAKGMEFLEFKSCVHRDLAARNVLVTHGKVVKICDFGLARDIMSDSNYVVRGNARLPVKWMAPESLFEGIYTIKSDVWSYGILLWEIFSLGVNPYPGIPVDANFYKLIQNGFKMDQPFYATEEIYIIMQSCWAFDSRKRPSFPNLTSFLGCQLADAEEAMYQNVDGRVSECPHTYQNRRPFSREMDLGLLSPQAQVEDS
Assay: DiscoverX KINOMEscan competition binding, FLT3 ITD
From the text: Kinase binding data were obtained for various exemplary compounds prepared according to Examples 1-24 using the DiscoverX KINOMVIEscan® active site-directed competition binding site-directed assay protocol described below. […] As a result, the data report thermodynamic interaction affinities (Kd values), rather than IC50 values that are dependent on ATP concentrations. The assay uses a DNA-tagged version of the protein kinase, and an immobilized ligand bound to a solid support. Compounds that directly or indirectly prevent kinase binding to the immobilized ligand reduce the amount of kinase captured on the solid support, which is detected using an ultra-sensitive qPCR method. Affinity constants reported from the assay have been reported to be independent of the immobilized ligand used that is coupled to the solid support (See supplemental information in Fabian, M. A. et. al., (2005) Nat. Biotechnol. 23, 329-336; Wodicka, L. M. et. al., (2010) Chem. Biol. 17, 1241-1249.)
Kinase-tagged T7 phage strains were prepared in an E. coli host derived from the BL21 strain. E. coli were grown to log-phase and infected with T7 phage and incubated with shaking at 32° C. until lysis. The lysates were centrifuged and filtered to remove cell debris. The remaining kinases were produced in HEK-293 cells and subsequently tagged with DNA for qPCR detection. Streptavidin-coated magnetic beads were treated with biotinylated small molecule ligands for 30 minutes at room temperature to generate affinity resins for kinase assays. The liganded beads were blocked with excess biotin and washed with blocking buffer (SeaBlock (Pierce), 1% BSA, 0.05% Tween 20, 1 mM DTT) to remove unbound ligand and to reduce non-specific binding. Binding reactions were assembled by combining kinases, liganded affinity beads, and test compounds in 1× binding buffer (20% SeaBlock, 0.17×PBS, 0.05% Tween 20, 6 mM DTT). Test compounds were prepared as 111× stocks in 100% DMSO. Kds were determined using an 11-point 3-fold compound dilution series with three DMSO control points. All compounds for Kd measurements are distributed by acoustic transfer (non-contact dispensing) in 100% DMSO. The compounds were then diluted directly into the assays such that the final concentration of DMSO was 0.9%. All reactions were performed in polypropylene 384-well plates. Each was a final volume of 0.02 mL. The assay plates were incubated at room temperature with shaking for 1 hour and the affinity beads were washed with wash buffer (1×PBS, 0.05% Tween 20). The beads were then re-suspended in elution buffer (1×PBS, 0.05% Tween 20, 0.5 μM nonbiotinylated affinity ligand) and incubated at room temperature with shaking for 30 minutes. The kinase concentration in the eluates was measured by qPCR.
Binding constants (Kds) were calculated with a standard dose-response curve using the Hill equation. The Hill Slope was set to −1. Curves were fitted using a non-linear least square fit with the Levenberg-Marquardt algorithm.

Compound	Kd [nM]
FC(F)c1cn2c(-c3cccc(N[C@H]4CNC[C@@H]4F)n3)cnc2cn1 [Compound 16, 6-(6-(difluoromethyl)imidazo[1,2-a]pyrazin-3-yl)-N-((3S,4S)-4-fluoropyrrolidin-3-yl)pyridin-2-amine]	0.14
F[C@H]1CNC[C@@H]1Nc1cccc(-c2cnc3cnc(C4CC4)cn23)n1 [Compound 50, 6-(6-cyclopropylimidazo[1,2-a]pyrazin-3-yl)-N-((3S,4S)-4-fluoropyrrolidin-3-yl)pyridin-2-amine]	0.091
CC1(c2cn3c(-c4cccc(N[C@H]5CNCC56CC6)n4)cnc3cn2)CC1 [Compound 5, (R)-N-(6-(6-(1-methylcyclopropyl)imidazo[1,2-a]pyrazin-3-yl)pyridin-2-yl)-5-azaspiro[2.4]heptan-7-amine]	0.11
FC(F)c1cn2c(-c3cccc(N[C@H]4CNCC[C@@H]4F)n3)cnc2cn1 [Compound 25, 6-(6-(difluoromethyl)imidazo[1,2-a]pyrazin-3-yl)-N-((3S,4S)-4-fluoropiperidin-3-yl)pyridin-2-amine]	0.34
CC1(c2cn3c(-c4cccc(N[C@@H]5CCNC5)n4)cnc3cn2)CC1 [Compound 3, (R)-6-(6-(1-methylcyclopropyl)imidazo[1,2-a]pyrazin-3-yl)-N-(pyrrolidin-3-yl)pyridin-2-amine]	0.14
Cn1cc(-c2cn3c(-c4cccc(N[C@H]5CNC[C@@H]5F)n4)cnc3cn2)cn1 [Compound 52, N-((3S,4S)-4-fluoropyrrolidin-3-yl)-6-(6-(1-methyl-1H-pyrazol-4-yl)imidazo[1,2-a]pyrazin-3-yl)pyridin-2-amine]	0.13
CC(C)(O)c1cn2c(-c3cccc(N[C@H]4CNCC[C@@H]4F)n3)cnc2cn1 [Compound 31, 2-(3-(6-(((3S,4S)-4-fluoropiperidin-3-yl)amino)pyridin-2-yl)imidazo[1,2-a]pyrazin-6-yl)propan-2-ol]	1.5
CC(C)(O)c1cn2c(-c3cccc(N[C@@H]4CCCNC4)n3)cnc2cn1 [Compound 30, (R)-2-(3-(6-(piperidin-3-ylamino)pyridin-2-yl)imidazo[1,2-a]pyrazin-6-yl)propan-2-ol]	2.9
FC(F)(F)C1(c2cn3c(-c4cccc(N[C@@H]5CCNC5)n4)cnc3cn2)CC1 [Compound 10, (R)-N-(pyrrolidin-3-yl)-6-(6-(1-(trifluoromethyl)cyclopropyl)imidazo[1,2-a]pyrazin-3-yl)pyridin-2-amine]	1.4
CC1(c2cn3c(-c4cccc(N[C@H]5CNC[C@@H]5F)n4)cnc3cn2)CC1 [Compound 1, N-((3S,4S)-4-fluoropyrrolidin-3-yl)-6-(6-(1-methylcyclopropyl)imidazo[1,2-a]pyrazin-3-yl)pyridin-2-amine]	0.087
FC(F)(F)COc1cn2c(-c3cccc(N[C@@H]4CCNC4)n3)cnc2cn1 [Compound 38, (R)-N-(pyrrolidin-3-yl)-6-(6-(2,2,2-trifluoroethoxy)imidazo[1,2-a]pyrazin-3-yl)pyridin-2-amine]	2.3
